The test system of series [1] is SCD1. As to the kind of experiment: Lentiviral shRNA knockdown of SCD1 in ccRCC cell lines (Caki1 and A498). Type of series: cell-based, human. On the procedure:
(§1) MISSION shRNA pLK0.1 constructs were used to make self-inactivating shRNA lentiviruses for human SCD1 (clones: NM_005063.3-1200s1c1[shSCD1200], NM_005063.3-780s1c1[shSCD780]), and a non-target (NT) random scrambled sequence control (SHC002). Transfection reagents Lipofectamine 2000 and ViraPower were used to generate lentiviruses using HEK293FT viral progenitor cells. ccRCC and NRE cells were incubated with lentivirus plus 5 μg/mL polybrene for 24 hrs prior to clonal selection with Puromycin.
(§2) An RNAqueous Midi Kit was utilized to extract and purify RNA from cell lines. Human tissue RNA was prepared using TRIzol® per manufacturer's protocol followed by purification using the RNAqueous Midi Kit. The O.D. 260/280 ratio of the mRNA was at least 1.8 and the 18s/28s bands were verified on a 1% agarose gel. cDNA was prepared from purified RNA samples using High Capacity cDNA Reverse Transcriptase Kit per manufacturer's instruction. TaqMan®Fast Universal PCR Master Mix and TaqMan®FAMTM dye-labeled probes including POLR2A (Hs00172187_m1) (normalization control), SCD1 (Hs01682761_m1), HSPA5 (Hs99999174_m1), CEBPβ (CEBPB Hs00270923_s1), GADD45A (Hs00169255_m1), DDIT3 (Hs01090850_m1), and HERPUD1 (Hs01124269_m1) were combined with prepared cDNA samples to analyze relative mRNA expression via qPCR. Fold change values were compared between normal and tumor, non-target scrambled lentiviral and target lentiviral infected, and DMSO vs. A939572 treated samples using the ΔΔCt method (Schmittgen T D, Livak K J. Analyzing real-time PCR data by the comparative C(T) method. Nat Protoc. 2008; 3:1101-8).
(§3) Protein extracts, electrophoresis, and membrane transfers were prepared as previously described (Copland J A, Marlow L A, Kurakata S, Fujiwara K, Wong A K, Kreinest P A, et al. Novel highaffinity PPARgamma agonist alone and in combination with paclitaxel inhibits human anaplastic thyroid carcinoma tumor growth via p21WAF1/CIP1. Oncogene. 2006; 25:2304-17). Primary antibodies included SCD1, PARP, DDIT3, BiP, sXBP1, and β-actin. A Supersignal chemiluminescent kit was used to perform detection.
To determine the involvement of SCD1 expression in renal cell carcinoma proliferation, two separate lentiviral constructs were designed to express shRNA molecules having the ability to reduce SCD1 expression. The first lentiviral construct was designed to express an shRNA designated SCD780. The sequence of SCD780 was as follows: 5′-[…]-3′ (SEQ ID NO:1). The second lentiviral construct was designed to express an shRNA designated SCD1200. The sequence of SCD1200 was as follows: 5′-[…]-3′ (SEQ ID NO:2). A non-target lentiviral construct was designed as a control.

Series [2] relates to SCD1. The series is described as follows: Lentiviral shRNA knockdown of SCD1 in normal renal epithelial cells (K359N and K360N). Type of series: cell-based, human. The procedure: as §1
as §2, with “Fold change values were compared between normal and tumor, non-target scrambled lentiviral and target lentiviral infected, and DMSO vs. A939572 treated samples using the ΔΔCt method (Schmittgen T D, Livak K J. Analyzing real-time PCR data by the comparative C(T) method. Nat Protoc. 2008; 3:1101-8).” left out

The subject of series [3] is Caki1 and A498 ccRCC cell lines. The series is described as follows: Proliferation assay of shSCD lentiviral infected cells. Type of series: cell-based, human. The note with it: vs NT control or treated normal kidney cells (K359N and K360N), counted after five days. The procedure: (§4) Drug stocks were prepared in DMSO. Monotherapeutic treatment identified drug dose-response. […] Temsirolimus dosing was performed as described in the text.
as §1
(§5) Media alone and BSA supplemented media served as control groups. Proliferation assay of NT control versus shSCD780 infected Caki1 and A498 cells cultured in media with or without OABSA were counted after five days. […] SCD1 knockdown by lentiviral infection was confirmed at the protein level (FIG. 3B).

For series [4] the test system is unchanged. As to the kind of experiment: PARP cleavage immunoblot of shSCD lentiviral infected cells. In kind it is cell-based, human. On the procedure: as §1, §3, §5
Series [5] concerns A549 nonsmall cell lung cancer cells. As to the kind of experiment: Cell number growth inhibition assay. Type of series: cell-based, human. On the procedure:
(§6) A number of cancer cell lines were tested to determine whether SCD1 protein expression correlates with growth inhibition of an SCD1 inhibitor in human cancer cell lines.
(§7) Cells (20,000/ml) were plated in 12 well cell culture plates, allowed to attach and treated with the indicated dose of SCD1 inhibitor ([…]) or standard of care (gemcitabine). Cell number was counted using a Coulter Counter. As show in FIG. 7, the data are expressed as percent of DMSO control. Each value represents triplicates. Western analysis for SCD1 protein expression was performed on each cell line with beta-actin as the loading control.
(§8) The following cell lines were studied using a similar method as that described above.

The test system of series [6] is HOV TAX2 ovarian cancer cells. The series is described as follows: Cell number growth inhibition assay. Type of series: cell-based, human. The procedure: as §6, §7, §8
The subject of series [7] is KTC3 thyroid cancer cells. The series is described as follows: Cell number growth inhibition assay. Type of series: cell-based, human. The procedure: as §6, §7, §8
Another series relates to FF1 cells. The series is described as follows: Cell number growth inhibition assay. In kind it is cell-based, human.
For a further series, the system named is Caki1 and A498 cells. The series is described as follows: Western blot of ER stress markers. In kind it is cell-based, human. To be noted: 75 nM drug or shSCD780 knockdown, 48 hours. On the procedure: as §3
(In general: In western blotting, separated proteins are transferred to a membrane and probed.)

The subject of a further series is A498 cells. The series is described as follows: qPCR of five ER stress genes. In kind it is cell-based, human. On the procedure: as §2
(§9) In order to validate the specificity of ER stress induction mediated by both A939572 and shSCD780, rescue assays were performed using OA-BSA in Caki1 and A498 cells qPCR analysis of five ER stress genes identified in the gene array including BiP, CHOP, HERPUD1 (homocysteine-inducible, ER-stress inducible, ubiquitin-like-1), GADD45a (DNA damage inducible transcript 1, DDIT1), and CEBPβ (CCAAT/enhancer binding protein beta) were examined.

For another series, the system named is Caki1 cells. As to the kind of experiment: qPCR of five ER stress genes. In kind it is cell-based, human. On the procedure: as §2, §9
In general terms: Quantitative PCR measures a nucleic acid by following its amplification.

The subject of series [8] is ATF6 luciferase reporter in Caki1 cells.
Procedure: (§10) For transient transfection, Caki1 and A498 cells were transfected using Lipofectamine 2000. Cells treated with DMSO vs. A939572 or infected using shSCD780 lentiviral constructs vs. NT control were harvested after 48 hrs using Promega's Dual Luciferase assay kit per the manufacturer's protocol and luciferase activity was measured using a Veritas Luminometer; reported as relative luminescence.
(§11) Caki1 and A498 cells transfected with an ATF6 luciferase reporter (p5xATF6-GL3) were treated with a 75 nM dose of A939572 or were infected with shSCD780. Resulting luminescence was measured after 48 hours.
Series [9] relates to ATF6 luciferase reporter in A498 cells.
Procedure: as §10, §11
Series [10] deals with BCJ4T bladder cancer cells. As to the kind of experiment: Cell number growth inhibition assay. In kind it is cell-based, human. On the procedure: as §6, §7, §8
For series [11], the system named is HT1376 bladder cancer cells. As to the kind of experiment: Cell number growth inhibition assay. In kind it is cell-based, human. On the procedure:
as §6, §7, §8

The subject of the next series is T24 bladder cancer cells. The series is described as follows: Cell number growth inhibition assay. Type of series: cell-based, human. On the procedure:
as §6, §7, §8

In a further series the test system is A375 melanoma cells. As to the kind of experiment: Cell number growth inhibition assay. In kind it is cell-based, human. On the procedure:
as §6, §7, §8

The next series relates to Mela 11 melanoma cells. The series is described as follows: Cell number growth inhibition assay. Type of series: cell-based, human. The procedure:
as §6, §7, §8

For series [12], the system named is SNU449 liver cancer cells. The series is described as follows: Cell number growth inhibition assay. In kind it is cell-based, human. To be noted: SNU449 liver cancer cells. On the procedure: as §6, §7, §8
Series [13] has as its system A498, Caki1, Caki2, and ACHN ccRCC cell lines. As to the kind of experiment: Temsirolimus dose out, cell proliferation. To be noted: monotherapy, four ccRCC cell lines; no dose response could be determined. Type of series: cell-based, human. On the procedure:
as §4
After identifying appropriate cell proliferative dose responses for pazopanib and sunitinib in four ccRCC cell lines including A498, Caki1, Caki2, and ACHN, both TKIs were dosed in combination with A939572 up to approximately the IC50 dose for each drug in the Caki1 and the A498 cell lines. […] Combinatorial treatments were therefore done using a fixed dose of Tem (0.1 nM, 1 nM, and 10 nM) combined with a dose range of A939572 up to the IC50 in Caki1, A498, Caki2 and ACHN cells.

Series [14] concerns A498 ccRCC xenografts. As to the kind of experiment: Western blot of CHOP in xenograft tumor tissue. The note with it: normalized to β-actin, tumor tissue samples. In kind it is in vivo, athymic nude (nu/nu) mice. The procedure:
as §3

The subject of series [15] is SCD1. The note with it: breast cancer cells, previously reported; cited from earlier work.
Series [16] has as its system A498 ccRCC xenografts. As to the kind of experiment: IHC analysis of resected xenograft tumors.
Procedure: The TMAs were mounted on slides from paraffin-embedded blocks according to IHC procedure and samples were blocked with Diluent that contained Background Reducing Components (Dakocytomation) for 30 min and then probed for SCD1, Ki67, Caspase-3, CD31, phospho-mTOR, DDIT3, and XBP1. […] Stain scoring was done using algorithms generated with Imagescope software created by a histologist. H-scores were calculated based upon signal intensity (0-3+) using the formula: [(1+%×1)+(2+%×2)+(3+%×3)], intensity (I)-scores were calculated by dividing signal intensity by area, and nuclear (N)-scores were calculated by dividing % positive nuclei by total nuclei examined per area. Cases where insufficient tumor tissue presented were excluded from the study. 20× images were obtained using Scanscope XT and Imagescope software.
IHC analysis of tumors resected from each treatment group was analyzed for proliferation, angiogenesis, and cell death (FIG. 6B).

Procedure for FF1 cells: A number of cancer cell lines were tested to determine whether SCD1 protein expression correlates with growth inhibition of an SCD1 inhibitor in human cancer cell lines. […] Cell number was counted using a Coulter Counter. […] Each value represents triplicates.

With “SCD1200: lentiviral construct expressing shRNA against SCD1, 5′-CGTCCTTATGACAAGAACATT-3′ (SEQ ID NO:2)”, in the series with SCD1 [1], the “SCD1 mRNA expression levels” value is on record as “reduced SCD1 mRNA expression levels” and the “SCD1 polypeptide expression levels” value is recorded as “reduced SCD1 polypeptide expression levels”. For the same compound, the “SCD1 mRNA expression levels” value in the series with SCD1 [2] is “reduced SCD1 mRNA expression levels”. For the same compound, in series [3], the proliferation / growth entry is reported as “reduced proliferation”. Besides, the “apoptosis by PARP cleavage” value in series [4] is listed as “induction of apoptosis”.

Turning to `CC(=O)O[C@H]1C(=O)[C@@]2(C)[C@H]([C@H](OC(=O)c3ccccc3)[C@]3(O)C[C@H](OC(=O)[C@H](O)[C@@H](NC(=O)c4ccccc4)c4ccccc4)C(C)=C1C3(C)C)[C@]1(OC(C)=O)CO[C@@H]1C[C@@H]2O` [Taxol], the growth inhibition result in series [5] is “growth inhibitory”; in series [6] it was “growth inhibitory”; in [7], “growth inhibitory”; in the series with FF1 cells, “minimal growth inhibitory effects”.

For the compound “shSCD780: lentiviral construct expressing shRNA against SCD1, 5′-CTACGGCTCTTTCTGATCATT-3′ (SEQ ID NO:1)”, the “protein expression of ER stress markers BiP, CHOP, spliced-XBP1” value with Caki1 and A498 cells is “amplified expression”. Also, the “ER stress gene expression with addition of OA-BSA” value is on record as “successfully blocked” in the series on A498 cells (A498, + OA-BSA) and “successfully blocked” with Caki1 cells (Caki1, + OA-BSA). In addition, the “mRNA expression of ER stress genes BiP, CHOP, HERPUD1, GADD45a, CEBPβ” value is on record as 4 of the 5 were significantly induced with A498 cells (A498, vs DMSO+BSA or NT control) and “all of the ER stress genes were significantly induced” in the series with Caki1 cells (Caki1, vs DMSO+BSA or NT control). Moreover, the “SCD1 mRNA expression levels” value in the series with SCD1 [1] and in the series on SCD1 [2] was “reduced SCD1 mRNA expression levels” in each case. The “SCD1 polypeptide expression levels” value in the series with SCD1 [1] was “reduced SCD1 polypeptide expression levels”. Also, the proliferation / growth result in series [3] is reported as “significant decreases in growth”; in series [3] (listed as SCD780) it was “reduced proliferation”. Also, in [4], the “apoptosis by PARP cleavage” value was “induction of apoptosis”. For the same compound, the “reporter activation with addition of OA-BSA” value is reported as “significantly reduced reporter activation” in [8] (Caki1, + OA-BSA) and “significantly reduced reporter activation” in [9] (A498, + OA-BSA). Further, the “luciferase activity, fold change induction” value in series [8] (Caki1, +BSA, 75 nM A939572 or shSCD780, 48 hours, vs DMSO and NT controls) is given as 1.7 fold change; in series [9] (A498, +BSA, 75 nM A939572 or shSCD780, 48 hours, vs DMSO and NT controls) it was 2.0 fold change.

As to `N.N.[Cl][Pt][Cl]` [Cisplatin], the growth inhibition result (in series [10]; in series [11]; with T24 bladder cancer cells) was “minimal growth inhibitory effects” in each case.

As for `Cn1nnc2c(C(N)=O)ncn2c1=O` [Temodar], the growth inhibition result was “dose responsively inhibits growth” in the series with A375 melanoma cells and “not” with Mela 11 melanoma cells.

Regarding `CNC(=O)c1cc(Oc2ccc(NC(=O)Nc3ccc(Cl)c(C(F)(F)F)c3)cc2)ccn1` [Sorafenib], the effective concentrations in series [12] lay within 1 to 10 µM.

Consider `CO[C@H]1C[C@@H]2CC[C@@H](C)[C@@](O)(O2)C(=O)C(=O)N2CCCC[C@H]2C(=O)O[C@H]([C@H](C)C[C@@H]2CC[C@@H](OC(=O)C(C)(CO)CO)[C@H](OC)C2)CC(=O)[C@H](C)/C=C(\C)[C@@H](O)[C@@H](OC)C(=O)[C@H](C)C[C@H](C)/C=C/C=C/C=C/1C` [Temsirolimus, temsirolimus], for which the “reduction in cell proliferation” value in series [13] is listed as “limited reduction in cell proliferation”. Besides, in the series with A498 ccRCC xenografts [14], the “CHOP expression (ER stress)” value is “induction of CHOP, although to a lesser extent”. For the same compound, in the series with SCD1 [15], the SCD1 expression entry is “decrease SCD1 expression”. Further, the “phosphorylated mTOR expression” value in the series on A498 ccRCC xenografts [16] (compared to the Placebo and A939572 groups) is reported as “decreased expression”. The “angiogenesis, intensity of microvessel density (CD31)” value in the series on A498 ccRCC xenografts [16] (cumulative scores not considered significant) is “slight decrease”. The “cell death, cleaved caspase-3 (CC3)” value in the series on A498 ccRCC xenografts [16] (vs placebo / other groups) is “moderate increase”. For the same compound, the “proliferation, percent positivity of nuclear Ki67 staining” value with A498 ccRCC xenografts [16] (vs placebo control) was “decreased proliferation”.

These data come from patent US10160972B2, “Methods and materials for treating cancer” (Mayo Foundation for Medical Education and Research, priority 2012, dated 2018).
